Measured values as given in patent US20220144879A1, “FLUORESCENT PROBE FOR DETECTING CANCER” (The University of Tokyo, priority 2019, published 2022).

Key:
[1] = tested on: breast cancer and benign tumor tissues (clinical mammary gland specimen); test: Two-color imaging with HMRef-α-D-Man and GGT probe in combination (FIG. 9); design: species or system human; conditions: 50 μM each probe; 30 minutes after administration of both probes
Protocol: Two-color imaging was performed under the following conditions using the glycosidase-reactive fluorescent probe 5 (HMRef-α-D-Man) (concentration: 50 μM) and a GGT probe gGlu-2-OMeSiR600 (concentration: 50 μM) in combination.
200 μL of a PBS solution of the fluorescent probes at the above concentrations was added to each well in which a clinical mammary gland specimen was placed, and fluorescence images at 1, 3, 5, 10, 20, and 30 minutes were acquired at 540 nm and 640 nm using the Maestro in vivo imaging system (PerkinElmer Inc.). Each fluorescence intensity value was quantified and compared by taking Regions Of Interest (ROIs) on Maestro software. For the glycosidase-reactive fluorescent probe 5, Ex/Em=465-30 nm/515 nm long-pass was used as the filter setting. For the GGT probe, Ex/Em=570-40 nm/610 nm long-pass was used.
The exposure time (in milliseconds) of the fluorescence image is indicated at the bottom of each image.

[2] = tested on: intact glycosidase activities in normal breast, IDC (breast cancer), and FA (benign tumor) tissues; test: Screening of glycosidase-reactive fluorescent probes for detecting breast cancer and benignancy (fluorescence increase in clinical mammary gland specimens); design: species or system human; conditions: probe 50 μM in PBS, increase from 1 minute to 30 minutes after addition, 540 nm
Protocol: Using the 12 types of glycosidase-reactive fluorescent probes synthesized above (refer to FIG. 1), screening for the detection of breast cancer and benignancy was performed in the following procedure.
200 μL of a PBS solution of each fluorescent probe at a concentration of 50 μM was added to each well in which a clinical mammary gland specimen was placed, and fluorescence images at 1, 3, 5, 10, 20, and 30 minutes were acquired at 540 nm using a Maestro in vivo imaging system (PerkinElmer Inc.). Each fluorescence intensity value was quantified and compared by taking Regions Of Interest (ROIs) on Maestro software. Ex/Em=465−30 nm/515 nm long-pass was used as the filter setting.
The increase in fluorescence indicates increase after the lapse of 1 minute to 30 minutes since the addition of the fluorescent probe. Each dot represents, from left to right, increase in fluorescence in normal breast, IDC, DCIS, and FA tissues.

With `COc1ccccc1C1=C2C=CC(=N)C=C2[Si](C)(C)c2cc(NC(=O)CC[C@H](N)C(=O)O)ccc21` [gGlu-2OME-SiR600, gGlu-2-OMeSiR600] the “red fluorescence (640 nm)” value [1] was “emitted red fluorescence in both breast cancer (malignant tumor) and the benign tumor”.
`COc1ccccc1C1=C2C=CC(=N)C=C2[Si](C)(C)c2cc(NC(=O)CC[C@H](N)C(=O)O)ccc21` [compound 7] was tested, and the increase in fluorescence [2] was “increase in fluorescence in both the breast cancer and FA (benign tumor) tissues”.
